Reference: publication PMC6132687, “Stem cells are the most sensitive screening tool to identify toxicity of GATA4-targeted novel small-molecule compounds” (Archives of Toxicology, 2018)

Assays:
[1] = tested on: stem cell and progenitor cell viability; experiment: Toxicity classification from MTT screening across cell types; settings: based on effects on stem cell and progenitor cell viability
Description: (§1) The cells were exposed to the test compounds for 24 h and cytotoxicity was quantified with MTT and LDH assays as described previously (Talman et al. [2011]). For the determination of cell membrane integrity, 50 µl of medium from each well was transferred onto a new 96-well plate followed by addition of 50 µl of substrate solution containing 1.3 mM β-nicotinamide adenine dinucleotide, 660 µM iodonitrotetrazolium, 54 mM L(+)-lactic acid, 280 µM phenazine methosulphate and 0.2 M Tris–HCl (pH 8.0). After a 30-min incubation, the reaction was stopped by adding 50 µl of 1 M acetic acid to each well and absorbance was measured at 490 nm using Victor2 plate reader (PerkinElmer, Turku, Finland). Spontaneous LDH release was measured from untreated cells, maximal LDH release from cells lysed with 0.9% Triton X-100 and background absorbance was measured from wells without cells. After background extraction, cytotoxicity was calculated as follows: cytotoxicity (%) = [(sample − spontaneous LDH release)/(maximal LDH release − spontaneous LDH release)] × 100. For quantification of metabolic activity, 3-(4,5-dimethylthiazol-2-yl)-2,5-diphenyltetrazolium bromide (MTT) was added to the cells at a final concentration of 0.5 mg/ml followed by 2 h incubation in cell culture conditions. The medium was then aspirated and formazan crystals were solubilized in DMSO. Absorbance was measured at 550 nm and absorbance at 650 nm was subtracted as background.
When comparing the effects of different compounds within each individual cell type, the compounds can be grouped into two main classes: toxic (3i-1000, 3i-1120, 3i-1148 and 3i-1229) and non-toxic (3i-1047, 3i-1051, 3i-1165, and 3i-1228) compounds. Based on the hiPSC toxicity data, 3i-1148 can be considered as the most toxic compound with an IC50 of 0.30 µM (Fig. 5b).

hiPSCs = experiment: MTT assay in hiPSCs; assay type: cell-based, human; settings: for IC50: Homo sapiens, 24-h exposure, read-out: IC50 (hiPSC viability)
Description: as §1, with “background. […]” for “background.”
Human pluripotent stem cells (hiPSCs): The iPS(IMR90)-4 line (Yu et al. 2007) was purchased from WiCell (Madison, Wisconsin, USA). The cells were cultured in Essential 8 ™ medium (E8) on 6-well plates coated with Matrigel® (1:50) and passaged 1:15 approximately every four days. The cells were dissociated using Versene®, resuspended in E8 containing 10 µM ROCK inhibitor (Y-27632) and seeded at 10,000 cells/well (cytotoxicity assays) or 5,000 cells/well (high-content imaging) in Matrigel®-coated 96-well plates. The cells were incubated overnight in standard conditions prior to compound addition. […]
1640 without glucose with B-27 supplement in order to purify cardiomyocytes. From day 15 onwards the cells were maintained in RPMI 1640 supplemented with B-27 (RB+ins). Beating hiPSC-CMs were dissociated between days 15 and 22 by incubating them in cell dissociation solution containing 40% enzyme-free cell dissociation buffer, 40% RPMI 1640 and 20% trypsin-EDTA (final trypsin concentration 0.01%) for 7–8 min, whereafter the cells were collected and trypsin was inactivated in RB+ins supplemented with 10% FBS. After centrifugation the cells were suspended in RB+ins with 10% FBS containing 10 µM ROCK inhibitor and seeded at 15,000 cells/well (cytotoxicity assays) or 20,000 cells/well (high content analysis) in gelatin-coated 96-well plates. The cells were let to attach for 2 days at 37 °C in standard conditions, whereafter the compounds were added in RB+ins. In general, the differentiation yielded an almost pure (>95%) cardiomyocyte culture.
Syntheses and characterization of compounds
Materials and general procedures. All reagents were acquired from Sigma-Aldrich (Schnelldorf, Germany) and Enamine (Kiev, Ukraine), and were used without further purification. All reactions in anhydrous solvents were conducted in oven-dried glassware under anhydrous argon. Thin-layer chromatography (TLC) was performed using Silica Gel 60 F254 (Merck) and Silica Gel 60 NH2 F254s aluminium sheets (Merck), visualized by UV illumination and stained with ninhydrin in EtOH (1.5% w/v). Microwave reactions were performed with a Biotage Initiator+ Robot Eight microwave (Uppsala, Sweden). Column chromatography was performed with an automated high performance flash chromatography Biotage Sp4-system or with a Isolera Spektra One-system (Uppsala, Sweden) using a 0.1-mm path length flow cell UV-detector/recorder module (fixed wavelength 254 nm) for the […] or a variable UV-VIS (200-800 nm) photodiode array detector for the Isolera Spektra One- […]

SMILES | toxicity class (toxic / non-toxic) [1] | IC50 (hiPSCs) | sensitivity of cell type to compound (viability) (hiPSCs; hiPSCs, 24 h) | reduction in viability (hiPSCs; hiPSCs, 24 h, 30 µM) | reduction in cell viability (hiPSCs; hiPSCs, 24 h, at ≥ 3 µM)
COc1ccc(-c2cc(N)nn2C(=O)c2c(-c3ccccc3)noc2C)cc1 [3i-1229] | toxic | 2070 nM | sensitive |  | 
CCN(CC)c1ccc(NC(=O)c2cc(C)oc2-c2ccccc2)cc1 [3i-1148] | toxic | 300 nM | sensitive |  | 
CCN(CC)c1ccc(NC(=O)c2c(C)noc2-c2cc(C)on2)cc1 [3i-1047] | non-toxic |  |  | 38–45% | 
CCC(=O)N(Cc1ccc(N(CC)CC)cc1)c1c(-c2ccccc2)noc1C [3i-1120] | toxic | 600 nM | sensitive |  | 
CCN(CC)c1ccc(NC(=O)c2c(-c3ccccc3)noc2C)cc1 [3i-1000] | toxic | 1460 nM |  |  | 93–94%
